GI50 and TGI data for eight compounds are collected here from PubChem BioAssay (NCI).

Among the test systems are UO-31 renal; SW-620 colon; RXF 393 renal; HT29 colon; HL-60(TB) leukemia; IGROV1 ovarian; M14 melanoma; CAKI-1 renal; SF-268 CNS; OVCAR-4 ovarian.
What all share (test): NCI-60 cell line screen, 48 h

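Five concentrations, 48 hours, 96-well plates. At the GI50, growth is halved. The concentration for full growth arrest is given as TGI.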

In the case of `CN1CCN(Cc2ccc(NC(=O)c3cncc(C#Cc4cnc(N)c5ccncc45)c3)cc2C(F)(F)F)CC1`, the GI50 with UO-31 renal was 0.918 µM; in the test with SW-620 colon it was 0.418 µM; with RXF 393 renal it was 0.516 µM; in the test on HT29 colon, 0.212 µM; in the test with HL-60(TB) leukemia, 0.387 µM; with IGROV1 ovarian, 0.331 µM. Also, the GI50 in the test on M14 melanoma is 0.141 µM; with CAKI-1 renal, 1.59 µM; with SF-268 CNS, 0.972 µM; in the test on OVCAR-4 ovarian, 0.283 µM. For the same compound, the TGI stood at 2.49 µM in the test on UO-31 renal; 3.46 µM in the test on SW-620 colon; 2.28 µM in the test on RXF 393 renal; 6.42 µM in the test on HT29 colon; 2.89 µM in the test with HL-60(TB) leukemia; 2.89 µM with IGROV1 ovarian. Further, the TGI is 0.547 µM in the test on M14 melanoma, above 16.3 µM in the test with CAKI-1 renal, 6.89 µM in the test with SF-268 CNS and 6.32 µM in the test with OVCAR-4 ovarian.
Take `O=[N+]([O-])c1cccc(-c2nc3sccn3c2-c2ccnc(NCCCNS(=O)(=O)c3cccc(F)c3)n2)c1`: the GI50 with UO-31 renal was 1.25 µM; in the test with SW-620 colon, 4.12 µM; with RXF 393 renal it was 8.13 µM; with HT29 colon, 3.12 µM; in the test with HL-60(TB) leukemia, 2.97 µM; with IGROV1 ovarian, 2.71 µM. The GI50 with M14 melanoma is 2.82 µM; in the test with CAKI-1 renal it was 2.33 µM; with SF-268 CNS, 3.21 µM; in the test with OVCAR-4 ovarian, 1.64 µM. Besides, the TGI was 9.04 µM in the test with UO-31 renal; above 100 µM in the test with SW-620 colon; 41.6 µM with RXF 393 renal; above 100 µM in the test on HT29 colon; 8.57 µM in the test with HL-60(TB) leukemia; 11.6 µM in the test with IGROV1 ovarian. For the same compound, the TGI with M14 melanoma came to 12 µM; in the test with CAKI-1 renal it was 14.1 µM; in the test with SF-268 CNS, 21.9 µM; in the test on OVCAR-4 ovarian, 7.64 µM.
As for `C=CC(=O)N1CCN(c2ccc3cccc(NC(=O)c4cnc(C)cn4)c3n2)CC1`, the GI50 in the test on UO-31 renal is 0.351 µM; in the test on SW-620 colon it was 4.85 µM; in the test on RXF 393 renal, 1.45 µM; in the test on HT29 colon it was 4.05 µM; in the test on HL-60(TB) leukemia, 2.2 µM; with IGROV1 ovarian it was 1.29 µM. Besides, the GI50 in the test with M14 melanoma is 3.05 µM; in the test on CAKI-1 renal, 0.555 µM; in the test on SF-268 CNS, 3.67 µM; in the test with OVCAR-4 ovarian, 2.66 µM. Besides, the TGI is 5.14 µM in the test with UO-31 renal; 34.9 µM in the test with SW-620 colon; 9.46 µM with RXF 393 renal; above 100 µM in the test on HT29 colon; 6.61 µM in the test with HL-60(TB) leukemia; 15.2 µM in the test on IGROV1 ovarian. Moreover, the TGI in the test with M14 melanoma was 21.3 µM; in the test with CAKI-1 renal, 11.5 µM; in the test with SF-268 CNS, 49.2 µM; in the test on OVCAR-4 ovarian, above 100 µM.
As for `O=C1c2ccccc2-c2c1c1ccc([N+](=O)[O-])cc1c(=O)n2CCCBr`, the GI50 in the test with UO-31 renal is above 100 µM; in the test on SW-620 colon, 5.26 µM; in the test with RXF 393 renal it was above 100 µM; in the test on HT29 colon, above 100 µM; in the test with HL-60(TB) leukemia, above 100 µM; in the test on IGROV1 ovarian, above 100 µM. Besides, the GI50 is 3.26 µM in the test with M14 melanoma, 3.23 µM in the test with CAKI-1 renal, above 100 µM with SF-268 CNS and above 100 µM with OVCAR-4 ovarian. In addition, the TGI in the test with UO-31 renal, in the test on SW-620 colon, with RXF 393 renal, with HT29 colon, in the test with HL-60(TB) leukemia and in the test on IGROV1 ovarian was above 100 µM throughout. In addition, the TGI with M14 melanoma, in the test on CAKI-1 renal, in the test with SF-268 CNS and in the test with OVCAR-4 ovarian was above 100 µM throughout.
As for `Cn1cnc2nc(Cl)nc(NC(C)(C)C(C)(C)O)c21`, the TGI with UO-31 renal, with SW-620 colon, in the test on RXF 393 renal, in the test with HT29 colon, in the test on HL-60(TB) leukemia and in the test with IGROV1 ovarian was above 100 µM throughout. Moreover, the TGI in the test with M14 melanoma, with CAKI-1 renal, in the test with SF-268 CNS and in the test with OVCAR-4 ovarian was above 100 µM each time.
For `Cc1ccc(C2=NOC3=c4ccccc4=CSC3=C2c2ccc([N+](=O)[O-])cc2)cc1`, the GI50 was 27.8 µM in the test with UO-31 renal; 62.3 µM with SW-620 colon; 18.7 µM in the test with RXF 393 renal; above 100 µM in the test on HT29 colon; above 100 µM with HL-60(TB) leukemia; 14.2 µM with IGROV1 ovarian. The GI50 with M14 melanoma is 18.6 µM; in the test on CAKI-1 renal, 16.8 µM; with SF-268 CNS, 18.1 µM; with OVCAR-4 ovarian, 95.6 µM. Further, the TGI in the test with UO-31 renal is above 100 µM; with SW-620 colon, above 100 µM; with RXF 393 renal it was 64.6 µM; in the test on HT29 colon, above 100 µM; in the test with HL-60(TB) leukemia, above 100 µM; in the test with IGROV1 ovarian it was above 100 µM. Further, the TGI was above 100 µM with M14 melanoma, 46.8 µM with CAKI-1 renal, 46.7 µM in the test with SF-268 CNS and above 100 µM with OVCAR-4 ovarian.
Take `O=C1OC(CCCl)(c2ccccc2)CC1CN1CCOCC1` (stereo not given): the TGI with UO-31 renal was above 100 µM; in the test on SW-620 colon, 39.2 µM; in the test on RXF 393 renal, 30.9 µM; in the test on HT29 colon, 46 µM; with HL-60(TB) leukemia, 26.5 µM; in the test with IGROV1 ovarian, 50.1 µM. The TGI in the test on M14 melanoma is 57.1 µM; in the test on CAKI-1 renal, 24.6 µM; in the test with SF-268 CNS, above 100 µM; with OVCAR-4 ovarian, above 100 µM.
Consider `N/C(=N\N=C\c1ccc(-c2ccccc2)cc1)N[N+](=O)[O-]`, for which the GI50 with UO-31 renal is 6.22 µM; in the test with SW-620 colon, 0.796 µM; with RXF 393 renal, 2.78 µM; in the test with HT29 colon, 3.59 µM; in the test on HL-60(TB) leukemia it was 1.9 µM; with IGROV1 ovarian, 28 µM. The GI50 was 1.65 µM with M14 melanoma, 4.17 µM with CAKI-1 renal, 7.07 µM in the test on SF-268 CNS and 10.8 µM in the test with OVCAR-4 ovarian. For the same compound, the TGI with UO-31 renal is above 100 µM; in the test with SW-620 colon, above 100 µM; in the test with RXF 393 renal it was 80.2 µM; in the test on HT29 colon it was above 100 µM; with HL-60(TB) leukemia, 7.58 µM; with IGROV1 ovarian it was above 100 µM. Besides, the TGI in the test on M14 melanoma, in the test with CAKI-1 renal, in the test on SF-268 CNS and in the test with OVCAR-4 ovarian was above 100 µM throughout.
